From publication PMC5786306, “An AKAP-Lbc-RhoA interaction inhibitor promotes the translocation of aquaporin-2 to the plasma membrane of renal collecting duct principal cells” (PLoS ONE, 2018)
Entries after “also recorded” stand apart in the source; their conditions may differ. Read-outs that look alike come from different tables or passages of the source.

Assays:
[1] = target: T1, interaction of AKAP-Lbc/DHPH and RhoA (Homo sapiens, UniProt P61586); experiment: Homogeneous time-resolved fluorescence (HTRF) assay; type: binding; conditions: HTRF; for inhibitory effect on the AKAP-Lbc/DHPH-RhoA interaction: result in words; for IC50: Table 1, '-' = no IC50, inactive (n.d. is used separately in S3 Table)
T1 construct: His6-AKAP-Lbc/DHPH (aa 1972–2342 of human AKAP-Lbc; NP_006729.4); made in house
T1 sequence (P61586 whole entry, the tested form may be a part): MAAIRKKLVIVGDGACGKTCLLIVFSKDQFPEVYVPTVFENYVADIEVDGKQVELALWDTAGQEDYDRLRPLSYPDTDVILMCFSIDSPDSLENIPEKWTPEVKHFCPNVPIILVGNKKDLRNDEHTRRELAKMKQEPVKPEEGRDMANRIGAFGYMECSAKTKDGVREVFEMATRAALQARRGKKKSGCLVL
Source text: Fig 2 The small molecule Scaff10-8 inhibits the interaction of the DH domain of AKAP-Lbc and RhoA. (A). Principle of homogenous time-resolved fluorescence (HTRF) assay. Recombinant His-AKAP-Lbc/DHPH and GST-RhoA were generated. The tags are recognized by specific antibodies coupled to fluorescent dyes. When the two proteins interact, donor and acceptor dyes of the antibodies are in close proximity, energy transfer occurs upon excitation at 320 nm and a FRET signal is detected (665 nm). If a compound disrupts the interaction of the DHPH domain and RhoA, the proximity of the fluorescent moieties remains insufficient for a FRET signal to occur. […] As expected, excess untagged Rho decreases the binding between GST-RhoA and His-AKAP-Lbc/DHPH in a dose-dependent manner (lower left panel). […] (C) The influence of Scaff10-8 on the interaction of RhoA with the recombinant DH domain of AKAP-Lbc in the absence of the PH domain was determined by Alpha screen. […] The IC50 value is indicated.
The assay was essentially carried out as described. Scaff10 derivatives were added to His6-AKAP-Lbc/DHPH protein (250 nM final concentration) in HTRF buffer (PBS; 4 mM MgCl2; 0.05% Tween 20) in 384 well plates (Proxiplate-384 Plus, white, #6008289; Perkin Elmer LAS, Rodgau, Germany). Concentrations of Scaff10 derivatives ranged between 1.56–200 μM (2% DMSO final concentration); HTRF buffer with 2% DMSO served as a control. GST-RhoA (30 nM final concentration) in HTRF buffer and anti-GST antibody coupled to terbium (donor) and anti-His6-tag antibody coupled to XL665 (acceptor) were added to all wells (final antibody concentration: 2 μg/ml). After 1 h incubation at room temperature in the dark, FRET signals were recorded at 620 and 665 nm using a Genios Pro plate reader (Tecan Austria GmbH, Grödig, AT) and the ratios of […] to 620 nm were calculated. Wells containing no compound were set to 100% interaction of AKAP-Lbc/DHPH with RhoA, wells containing GST-RhoA only (without His6-AKAP-Lbc/DHPH) were set to 0% interaction. To exclude any interference of the tags and/or antibodies with Scaff10 derivatives, a His6-GST fusion protein replaced the two tagged proteins in a control assay. Wells containing His6-GST fusion protein were set to 100% interaction of His6-GST, wells containing no fusion protein were set to 0% interaction.

Nephelometric solubility = type: physicochemical; conditions: maximal solubility in DMEM + 10 % FCS
Experimental: Solubility of Scaff10 derivatives was assessed nephelometrically. Scaff10 derivatives are moderately to poorly soluble in aqueous solutions due to their large number of aromatic rings having lipophilic character. Details about NMR, LC/MS and HPLC characterization steps are given in the Supplemental Information.
Suppl. Tab. 3: Overview of all 55 Scaff10 derivatives.Structures labeld with 1 were commercially obtained. MW = molecular weight. logP = calculated partition coefficient (using […]
Solubility was assessed nephelometrically in DMEM + 10 % FCS + Scaff10 derivative with either 0.3 or 2 % DMSO
final concentration; values in µM indicate maximal solubility of the compound under the respective condition. Yield in % indicates total yield of the last step of chemical synthesis
for each of Scaff10 derivatives. n.d. = not determined. n.i. = not indicated.
Scaff10 MW Number of exp. 2 % DMSO 0.3 % DMSO Scaff10 Yield
Structure log P Disruption of the PPI IC50 [µM]
derivative [g/mol] in dupl. [µM] [µM] class [%]

[2] = test system: AQP2 localization in MCD4 cells; experiment: Immunofluorescence microscopy of AQP2 in MCD4 cells; type: cell-based, mouse; conditions: 30 μM
[3] = target: T2, interaction of the DH domain of AKAP-Lbc and RhoA (Homo sapiens, UniProt P61586); experiment: Alpha screen assay; type: binding; conditions: result in words
T2 construct: The proteins used were N-terminally His6-tagged AKAP-Lbc-DH domain
T2 sequence (P61586 whole entry, the tested form may be a part): as above
Experimental: Assays were performed according to the manufacturer’s protocol (PerkinElmer) with minor modifications. All reagents were diluted in buffer containing 25 mM Hepes, pH 7.4, 100 mM NaCl, 0.1% bovine serum albumin, 0.05% CHAPS and 50 μM GDP and allowed to equilibrate to room temperature before addition to plates. […] The proteins used were N-terminally His6-tagged AKAP-Lbc-DH domain and C-terminally biotinylated RhoA. […] 8 μL of assay buffer containing donor and acceptor beads at 1:400 dilution was then added, the plate was incubated in the dark for 60 min and then read on a PheraStar FS plate reader (BMG Labtech, Germany) using an AlphaScreen^TM 680 excitation/570 emission filter set.
11.6 μL of a solution containing 100 nM RhoA and 200 nM AKAP13 in assay buffer was added and incubated with the compounds for 30 min at RT in foil-sealed plates. 8 μL of assay buffer containing donor and acceptor beads at 1:400 dilution was added. The plate was incubated in the dark for 60 min and then read on a PheraStar FS plate reader.

[4] = comparison value, no reference given; cited from earlier work
647-RhoA = target: T3, 647-RhoA (Homo sapiens, UniProt P61586); experiment: Microscale thermophoresis (MST) with 647-RhoA; type: binding; conditions: for Kd: mean ± SEM
T3 construct: made in house
T3 sequence (P61586 whole entry): as the sequence (P61586 whole entry, the tested form may be a part) above
Experimental: (§1) The final concentration of GFP-AKAP-Lbc/DHPH was set to 150 nM, 95% LED and 80% MST laser power. […] The samples were incubated in the dark for 1 h incubation at room temperature, and measured with 30 sec laser-on and 5 sec laser-off time at a Monolith NT.115 device (NanoTemper). Measured fluorescence (F) was normalised (Fhot/Fcold = Fsteady state/Finitial state, Fig 3). Values of thermophoresis + T-jump were related to average of each measurement row (16 capillaries). Final values are given as ‰.
(§2) Fig 4 The Scaff10 derivative Scaff10-8 binds to RhoA but not to the DHPH domain of AKAP-Lbc. (A-D) Microscale thermophoresis (MST) takes advantage of the phenomenon of directed movement of particles in a temperature gradient. Binding events lead to changes in the hydration shell of biomolecules and a relative change of movement of the molecular complex along a temperature gradient. Using such changes, binding affinities can be determined. MST assays were carried out with (A) the recombinant DHPH domain of AKAP-Lbc fused with GFP and RhoA as a ligand and (B) fluorescent 647-RhoA and the His-tagged AKAP-Lbc/DHPH domain as a ligand. (C) MST assays for the analysis of the binding of Scaff10-8 to 647-RhoA. Upper panels: The concentration of fluorescent 647-RhoA remained constant and Scaff10-8 (left) and Scaff10-7 as a negative control (right) were titrated in increasing concentrations. Lower panels: Values of fluorescence corresponding to upper panels. (D) MST assay showing no binding of Scaff10-8 or Scaff10-7 to GFP-DHPH. Upper panels: The concentration of fluorescent GFP-AKAP-Lbc/DHPH remained constant and Scaff10-8 (left) and Scaff10-7 (right) were titrated in increasing concentrations. Lower panels: Values of fluorescence corresponding to upper panels. […] F norm = normalized fluorescence (fluorescence steady state/fluorescence initial state) indicated in ‰. n = 3–5. Mean ± SEM. […] The ligand protein named in each panel heading is used as the substance label, and it is uncertain whether these count as substances.

GFP-AKAP-Lbc/DHPH = target: T4, GFP-AKAP-Lbc/DHPH (Homo sapiens, UniProt Q12802); experiment: Microscale thermophoresis (MST) with GFP-AKAP-Lbc/DHPH; type: binding; conditions: read-out: KD for binding to GFP-AKAP-Lbc/DHPH
T4 construct: His6-AKAP-Lbc/DHPH (aa 1972–2342 of human AKAP-Lbc; NP_006729.4); made in house; host or cells: HEK293-EBNA cells (transient transfection, pTT5)
T4 sequence (Q12802 1972-2342 isoform Q12802-2): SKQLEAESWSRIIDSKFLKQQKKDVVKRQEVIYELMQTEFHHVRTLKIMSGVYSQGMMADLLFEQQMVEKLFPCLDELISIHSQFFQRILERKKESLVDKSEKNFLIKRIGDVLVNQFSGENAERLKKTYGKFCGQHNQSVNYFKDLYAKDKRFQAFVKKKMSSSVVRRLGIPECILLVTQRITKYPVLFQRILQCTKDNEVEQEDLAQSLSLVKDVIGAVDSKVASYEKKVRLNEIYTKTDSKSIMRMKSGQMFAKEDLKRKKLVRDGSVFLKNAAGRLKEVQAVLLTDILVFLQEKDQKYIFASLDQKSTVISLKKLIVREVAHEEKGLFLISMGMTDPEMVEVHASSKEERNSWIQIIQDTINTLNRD
Experimental: as §1, §2

[5] = DMEM + 10 % FCS, plasma or biological fluid, kinetic from dmso stock, 0.3 % DMSO final, read-out: Solubility 0.3 % DMSO
[6] = DMEM + 10 % FCS, plasma or biological fluid, kinetic from dmso stock, 2 % DMSO final, read-out: Solubility 2 % DMSO

In the case of CCOC(=O)CCc1c(C)c2ccc(OCc3ccc(OC)cc3)cc2oc1=O [Scaff10-59], the “inhibitory effect on the AKAP-Lbc/DHPH-RhoA interaction” value [1] is reported as “did not; also recorded: without inhibitory effects”, the IC50 ([1]; read-out: IC50 ± SEM) is reported as greater than 200 µM and the solubility (Nephelometric solubility; [5]) is reported as 40 µM. For the same molecule, the solubility (Nephelometric solubility; [6]) was 30 µM, the “localization of AQP2 in MCD4 cells” value [2] was “did not affect the location of AQP2” and the “inhibitory effect in Alpha screen” value [3] was “without inhibitory effects”.

For O=C(O)/C=C/c1ccccc1 [cinnamic acid], the pKa [4] is listed as 4.44.

For CC(=O)NO [acetohydroxamic acid], the pKa [4] is listed as 8.7.

In the case of Cc1c(CCC(=O)O)c(=O)oc2cc3occ(-c4ccc(Oc5ccccc5)cc4)c3cc12 [Scaff10-38], the IC50 ([1]; IC50 ± SEM) is reported as 36.7 ± 3.3 µM, the Kd (647-RhoA; KD for binding to 647-RhoA, n = 3–5) is reported as 19.5 ± 4.1 µM and the solubility (Nephelometric solubility; [5]) is reported as greater than 150 µM. The solubility (Nephelometric solubility; [6]) was 100 µM.

Work on “untagged RhoA: recombinant untagged RhoA protein used as competitor or ligand” yielded a Kd (GFP-AKAP-Lbc/DHPH) of 42 ± 5 µM.

With COC(=O)CCc1c(C)c2cc3c(-c4ccc(OC)cc4)coc3cc2oc1=O [Scaff10-48] the “inhibitory effect on the AKAP-Lbc/DHPH-RhoA interaction” value [1] was “complete loss of the inhibitory effect”, the IC50 ([1]; read-out: IC50 ± SEM) was greater than 200 µM and the “binding to 647-RhoA” value (647-RhoA; result in words) was “did not bind”. It also gave a solubility (Nephelometric solubility; 0.3 % DMSO final, read-out: Solubility 0.3 % DMSO) of 75 µM and a solubility (Nephelometric solubility; 2 % DMSO final, read-out: Solubility 2 % DMSO) of 30 µM.

B1: His-AKAP-Lbc/DHPH: recombinant His-tagged DHPH domain of AKAP-Lbc (protein)
chain: T4 sequence (Q12802 1972-2342 isoform Q12802-2)
modifications: left off: His6, end not stated, kept
In the case of B1, the Kd (647-RhoA; n = 3–5, read-out: KD for binding to 647-RhoA) is reported as 14 ± 4 µM.
